# Source: patent publication US9844521B2, “Pharmaceutical composition comprising ginger extract or shogaol” (UNIVERSITY-INDUSTRY COOPERATION GROUP OF KYUNG HEE …, priority 2008, dated 2017)
# Tests used:
# [1] = system: rat primary mesencephalic dopaminergic cells; assay: Protection of dopamine cells against MPP+ neurotoxicity (TH immunohistochemistry); type: cell-based; details: 0.01 μM, 10 μM MPP+ for 23 hours; MPP+ group 44.25±7.61% of a control
# Protocol: Female Sprague-Dawley rats (2-week old) were used, and shogaol was obtained from WAKO Company (Japan).
# Fetal mesencephalon tissues of Sprague-Dawley rats […] were desquamated, and mechanically dissociated by using a forcept. The tissues were treated with trypsin and the number of cells was counted, and the cells were seeded on a cover slip coated with poly-L-lysine (PLL), and then proliferated in an incubator including 5% CO2 and 95% air at a temperature of 37 °C for 5 days. A fetal bovine serum (FBS)-free media was treated with 0.01 μM or 0.1 μM of shogaol after the shogaol was diluted, or the ginger extract (the ethanol extract, the hexane fraction, the ethyl acetate fraction, the butanolfraction, and the water fraction prepared according to Example 1) after the ginger extract was diluted. […]
# Cells immobilized by using 4% PFA were washed with PBS and then, dehydrated with 1% hydrogen peroxide for 15 minutes. […] After the color-producing using DAB, a cover slip was separated and then mounted on a slide by using a gel mount and the number of cells was counted.
# Cells were color-produced by immunohistochemistry in the same manner as Experimental Example 3-1, and the number of cells was counted and the results are shown in FIGS. 8 and 9.
# [2] = system: salmonella typhimurium strains (TA 100, TA 1535, TA 98, and TA 1537); assay: Back mutation test (genotoxicity in bacteria), Salmonella strains; details: TA 100, TA 1535, TA 98, TA 1537; compared with negative control
# Protocol: In order to evaluate genotoxicity in bacteria, a back mutation test was performed using histidine-requiring salmonella typhimurium strains (TA 100, TA 1535, TA 98, and TA 1537) and an E. coli strain (E. coli WP2 uvrA). As a result, a positive control has a substantially greater colony number than a negative control. […] Accordingly, it was confirmed that the ginger extract and shogaol all had stability in the genotoxicity test.
# C6 cells = assay: Nerve growth factor secretion induction in C6 cells (NGF measurement kit); type: cell-based, mouse; details: conditioned media of C6 cells, mean±standard deviation
# Protocol: This test was performed using a glioma C6 cell line of […] which is known as a cell line that secretes a nerve growth factor (NGF), and a pheochromocytoma PC12 cell line of […] which is known as a cell line that grows neurite with respect to an NGF in a similar way as a neuron. C6 cells and PC12 cells were obtained from Korean Cell Line Bank (KCLB Nos. 10107 and 21721, respectively). C6 cells were cultured using DMEM media (Gibco BRL, USA) supplemented with 3.4 g/L of sodium bicarbonate (NaHCO3), 10% fetal bovine serum, and 1% penicillin-streptomycin antibiotics (10000 U/ml), and PC12 cells were cultured using RPMI1640 medium (Gibco BRL, USA) supplemented with 2.0 g/L of sodium bicarbonate, 10% horse serum, 5% fetal bovine serum, and 1% penicillin-streptomycin antibiotics (10000 U/ml). The fetal bovine serum and the horse serum were inactivated at a temperature of 55[…] for 30 minutes before use, and all of the cells were cultured in a cell culture vessel with a humidity of 70% at a temperature of 37[…] to which 5% carbon dioxide was supplied. Regarding the PC12 cells, the cells were cultured in a culture vessel that was surface-coated with poly-D-lysine (Sigma) diluted with 50 μg/ml of a PBS buffer solution (pH 7.2) for 1 hour and then washed three times with a PBS buffer solution. Shogaol used was obtained from WAKO Company (Japan).
# C6 cells attached to a 100 mm culture vessel were separated from the culture vessel by using 0.25% Trypsin-EDTA (Gibco BRL, USA), and then 10 ml of fresh medium was added to the cells to prepare a cell suspension. Then, the number of viable cells was counted and calculated by using a cell number counter. The cells were divided based on the counted cell number such that 2×10^6 cells were contained in a 100 mm culture dish. After 24 hours of cultivation, the used media was removed and replaced with 10 ml of a DMEM medium containing 2% fetal bovine serum, to which 100 ug/ml of each of the ethanol extract, the n-hexane fraction, the ethyl acetate fraction, the n-butanol fraction, and the water fraction prepared according to Example 1 was added. After 24 hours of cultivation, the respective media were obtained. The obtained media were centrifuged at a rate of 1500 rpm for 10 minutes and then a supernatant was collected, and these media (conditioned media) were used to treat PC12 cells.
# The C6 cells were divided and treated with 0.1, 1, 5, 10, and 20 μM of shogaol in the same manner as in Experimental Example 1-1 to prepare conditioned media.
# A nerve growth factor secreted from C6 cells by shogaol was quantified by treating a nerve growth factor measurement kit (DY556, R&D system, USA) with the conditioned media. In order to identify an effect of shogaol on nerve growth factor secretion induction, a nerve growth factor in the conditioned media prepared by culturing C6 cells after the cells were treated with shogaol was quantified and the results are shown in FIG. 2.
smiles,measurement,setting,value
"CCCCC/C=C/C(=O)CCc1ccc(O)c(OC)c1 [shogaol, (E)-1-(4-hydroxy-3-methoxyphenyl)dec-4-en-3-one]",number of dopamine positive cells,[1],91.50±3.38%
same,colony number (back mutation),[2],the colony number was not increased
same,secretion amount of a nerve growth factor,C6 cells; 0.1 μM,105.46±7.27 % of a control
same,secretion amount of a nerve growth factor,C6 cells; 1 μM,112.72±3.67 % of a control
same,secretion amount of a nerve growth factor,C6 cells; 5 μM,112.97±4.97 % of a control
same,secretion amount of a nerve growth factor,C6 cells; 10 μM,119.44±5.18 % of a control
same,secretion amount of a nerve growth factor,C6 cells; 20 μM,124.81±5.61 % of a control
